The values below come from PubChem BioAssay (NCI).

Test systems include OVCAR-4 ovarian; NCI-H522 lung; HOP-92 NSCLC; ACHN renal; SK-MEL-5 melanoma; NCI-H226 lung; OVCAR-3 ovarian; NCI-H460 lung; HS 578T breast; HL-60(TB) leukemia.
What all share (test): NCI anticancer screen, dose series, 48 h

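Values below derive from 48-hour exposures of cells grown in 96-well plates, with endpoints linearly interpolated between the two concentrations bracketing the appropriate inhibition level. At the GI50, growth is halved. TGI: total growth inhibition.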

On to `CC1CCCC2(CC[N+](C)(CCC[N+](C)(C)C)CC2)C1` (stereo not given), for which the TGI in the experiment with OVCAR-4 ovarian, with NCI-H522 lung, in the experiment with HOP-92 NSCLC, in the experiment on ACHN renal, in the experiment on SK-MEL-5 melanoma and in the experiment on NCI-H226 lung was over 100 µM throughout. In addition, the TGI with OVCAR-3 ovarian was over 100 µM; in the experiment with NCI-H460 lung it was over 100 µM; in the experiment with HS 578T breast it was over 100 µM; in the experiment with HL-60(TB) leukemia it was 43.9 µM.

With `CC(=O)NCCC1CN(C(=O)/C=C/I)c2ccccc21` (stereo not given), the TGI with OVCAR-4 ovarian is 4.45 µM; in the experiment with NCI-H522 lung, 2.83 µM; with HOP-92 NSCLC it was 4.43 µM; in the experiment with ACHN renal it was 17.8 µM; in the experiment on SK-MEL-5 melanoma, 20.3 µM; in the experiment on NCI-H226 lung, 29.2 µM. Also, the TGI in the experiment with OVCAR-3 ovarian is 12.6 µM; with NCI-H460 lung, 16.9 µM; with HS 578T breast it was 37 µM; in the experiment on HL-60(TB) leukemia, over 100 µM.

Consider `ClCCCc1ccccc1C1=NCCc2ccccc21`, for which the TGI with OVCAR-4 ovarian is over 100 µM; in the experiment on NCI-H522 lung, over 100 µM; with HOP-92 NSCLC, over 100 µM; in the experiment on ACHN renal it was over 100 µM; in the experiment on SK-MEL-5 melanoma it was 40.5 µM; with NCI-H226 lung it was over 100 µM. Moreover, the TGI with OVCAR-3 ovarian, with NCI-H460 lung, in the experiment on HS 578T breast and in the experiment on HL-60(TB) leukemia was over 100 µM throughout.

Consider `Cc1cc(F)ccc1S(=O)(=O)Nc1cc(-c2c(O)ccc3ccccc23)c(O)c2ccccc12`, for which the GI50 was 2.21 µM in the experiment on OVCAR-4 ovarian; 1.77 µM in the experiment with NCI-H522 lung; 0.292 µM with HOP-92 NSCLC; 2.44 µM with ACHN renal; 1.77 µM in the experiment with SK-MEL-5 melanoma; 2.85 µM in the experiment with NCI-H226 lung. The GI50 in the experiment on OVCAR-3 ovarian was 2.67 µM; in the experiment with NCI-H460 lung, 2.92 µM; with HS 578T breast, 2.6 µM; in the experiment on HL-60(TB) leukemia, 2.6 µM. Further, the TGI in the experiment on OVCAR-4 ovarian came to 6.66 µM; with NCI-H522 lung, 4.77 µM; with HOP-92 NSCLC it was 2.82 µM; in the experiment on ACHN renal, 8.03 µM; in the experiment with SK-MEL-5 melanoma, 3.52 µM; in the experiment with NCI-H226 lung it was 14.5 µM. For the same compound, the TGI turned out to be 10.3 µM with OVCAR-3 ovarian, 11.4 µM in the experiment with NCI-H460 lung, 10.2 µM with HS 578T breast and 6.19 µM in the experiment with HL-60(TB) leukemia.

Take `COc1cccc(CCN2CCN(CCCc3ccccc3)CC2)c1`: the TGI in the experiment with OVCAR-4 ovarian was over 100 µM; in the experiment on NCI-H522 lung, 67.9 µM; in the experiment on HOP-92 NSCLC, 64.4 µM; with ACHN renal, over 100 µM; with SK-MEL-5 melanoma it was 40.6 µM; with NCI-H226 lung it was over 100 µM. For the same compound, the TGI with OVCAR-3 ovarian, in the experiment on NCI-H460 lung, in the experiment on HS 578T breast and in the experiment on HL-60(TB) leukemia was over 100 µM throughout.

On to `Cc1ccc(/C(O)=C/c2nc3ccccc3sc2=O)c(C)c1`, for which the TGI with OVCAR-4 ovarian is 70.8 µM; in the experiment on NCI-H522 lung it was 62.1 µM; in the experiment with HOP-92 NSCLC, 82.4 µM; in the experiment with ACHN renal it was over 100 µM; in the experiment with SK-MEL-5 melanoma it was over 100 µM; in the experiment with NCI-H226 lung it was over 100 µM. The TGI was over 100 µM in the experiment on OVCAR-3 ovarian, over 100 µM in the experiment on NCI-H460 lung, over 100 µM in the experiment on HS 578T breast and 69.6 µM in the experiment with HL-60(TB) leukemia.

As to `CC(NC(=O)C(NC(=O)CNC(=O)OC(C)(C)C)C(C)C)C(=O)Oc1c(Cl)c(Cl)c(Cl)c(Cl)c1Cl` (stereo not given), the TGI with OVCAR-4 ovarian worked out at 60.9 µM; in the experiment with NCI-H522 lung, 45.2 µM; with HOP-92 NSCLC it was 41.3 µM; in the experiment with ACHN renal it was 58.9 µM; in the experiment with SK-MEL-5 melanoma it was 33.9 µM; in the experiment on NCI-H226 lung, 52.6 µM. For the same compound, the TGI is 28.5 µM with OVCAR-3 ovarian, 39.3 µM in the experiment on NCI-H460 lung, 50.1 µM in the experiment with HS 578T breast and over 100 µM in the experiment on HL-60(TB) leukemia.

Take `O=C1NC(=O)C(C(CC(=O)c2ccc([N+](=O)[O-])cc2)c2ccccc2)C(=O)N1` (stereo not given): the TGI in the experiment with OVCAR-4 ovarian, in the experiment on NCI-H522 lung, with HOP-92 NSCLC, in the experiment on ACHN renal, with SK-MEL-5 melanoma and in the experiment on NCI-H226 lung was over 100 µM each time. In addition, the TGI in the experiment on OVCAR-3 ovarian was over 100 µM; in the experiment with NCI-H460 lung, over 100 µM; in the experiment on HS 578T breast it was 31.7 µM; in the experiment on HL-60(TB) leukemia, over 100 µM.

For `Cc1ccc([S@](=O)c2occc2C=O)cc1`, the TGI is over 53.2 µM in the experiment with OVCAR-4 ovarian; 31.6 µM in the experiment with NCI-H522 lung; 7.78 µM with HOP-92 NSCLC; 28.7 µM with ACHN renal; 23.1 µM in the experiment on SK-MEL-5 melanoma; 38 µM in the experiment with NCI-H226 lung. Also, the TGI is 6.41 µM in the experiment on OVCAR-3 ovarian, 33.8 µM in the experiment on NCI-H460 lung, 36.1 µM with HS 578T breast and 4.25 µM in the experiment on HL-60(TB) leukemia.

As to `C[N+](C)(C)c1ccc(C(N)C(=O)O)cc1` (stereo not given), the TGI with OVCAR-4 ovarian, with NCI-H522 lung, with HOP-92 NSCLC, in the experiment on ACHN renal, in the experiment with SK-MEL-5 melanoma and in the experiment on NCI-H226 lung was over 100 µM throughout. Also, the TGI in the experiment with OVCAR-3 ovarian, in the experiment with NCI-H460 lung, in the experiment with HS 578T breast and in the experiment with HL-60(TB) leukemia was over 100 µM each time.
